pIC50: −log10 of the molar value. Read-outs that look alike come from different tables or passages of the source.
What was measured:
[1] = tested on: forty-four safety targets; experiment: In vitro off-target panel of 44 safety targets; settings: 10 µM
Description: The pharmacologic safety of QL-1200186 was tested by analyzing forty-four safety targets in vitro. The off-target effects of QL-1200186 on 24 G protein-coupled receptors (β1, β2, D1, H2, A2A, CB1, CB2,5-HT1A, 5-HT1B and D2S) were evaluated by measuring the changes in cyclic adenosine monophosphate and IP-1 levels. The effects of QL-1200186 on the current changes of eight ion-channel targets were determined by methods based on fluorescent imaging plate reading and patch clamps. Using stable transfer or transient plasmid transfer, the excitatory and inhibitory effects of QL-1200186 on glucocorticoid receptors and androgen receptors in the nucleus were determined by the change in luciferase expression. The inhibitory effects of QL-1200186 on seven enzymes (including cyclo-oxygenase-2, phosphodiesterase (PDE) 3A and PDE4D2) were evaluated by biochemical methods based on luminescence and fluorescence. After data analyses, radar charts were used to display the results.

[2] = tested on: TYK2/JAK1; experiment: IL-23 HEK293 reporter assay; assay type: cell-based, human
[3] = tested on: TYK2/JAK2; experiment: IL-12/IL-18-induced IFNγ production in NK-92 cells, ELISA; assay type: cell-based, human
Description: The inhibitory effect of QL-1200186 on IL-12/IL-18-induced IFNγ production in NK cells or human whole blood was determined by enzyme-linked immunosorbent assay (ELISA). NK92 cells were stimulated with recombinant human IL-12 (2 ng/mL; 200–12; PeproTech, Cranbury, NJ, USA) and recombinant human IL-18 (5 ng/mL; 9124-IL-050/CF; R&D Systems, Minneapolis, MN, USA) with or without QL-1200186 for 24 h at 37 °C. For human whole blood cells, whole blood (200 μL) was preincubated with the compound for 1 h and then stimulated with recombinant human IL-12 (2 ng/mL) or recombinant human IL-18 (10 ng/mL) for 24 h. After centrifugation, the supernatant was collected, and IFNγ production in the supernatant was measured with human IFNγ ELISA kits according to the manufacturer’s instructions (Biolegend, 430,104).

[4] = tested on: TYK2/JAK1; experiment: IFNα-induced pSTAT1 in CD19+ B cells of human PBMCs; assay type: cell-based
Description: The reaction was terminated by collecting cells for surface staining. Cells were stained with anti-CD3 FITC (300406; Biolegend, San Diego, CA, USA), anti-CD19 APC (555415; BD Biosciences) or aqua fluorescent reactive dye BV421 (L34966A; Invitrogen, Carlsbad, CA, USA) antibodies for 20 min. After washing, fixation buffer (557870; BD Biosciences) was added and incubated for 10 min. Cells were washed and permeabilized on ice using Perm III Buffer (558050; BD Biosciences). Cells were stained with PE anti-PSTAT1 antibody (562069; BD Biosciences) for 30 min and analyzed by flow cytometry.

[5] = tested on: JAK1/JAK3; experiment: IL-2-stimulated pSTAT5 in human PBMC; assay type: cell-based; settings: @10μM
Description: With regard to IL-2-stimulated JAK1/3 activation in human PBMCs, after 1 h of incubation with QL-1200186, human PBMCs were stimulated with human IL-2 (20 ng/mL; C013; Novoprotein) for 20 min.
The stimulations stated above were terminated with prewarmed Lyse/Fix Buffer (558,049; BD Biosciences, San Jose, CA, USA) for 10 min. Cells were stained with an anti-cluster of differentiation (CD)3 fluorescein isothiocyanate (FITC) antibody (required for PBMCs but not for the other cell types), washed, and permeabilized on ice using Perm III Buffer (558,050; BD Biosciences) prior to staining with an Alexa Fluor 647 anti-phosphorylated (p)STAT5 (pY694) antibody for 30 min and analyzed by flow cytometry. Phosphorylation of STAT5 was quantified by the median fluorescence intensity (MFI) after gating on the CD3-positive population.

[6] = tested on: human monocytes; experiment: IFNα-induced differentiation of human monocytes to dendritic cells (CD80, CD83, CD86); assay type: cell-based; settings: 5, 20 or 100 nM, 6 days
Description: First, monocytes in human PBMCs were isolated using an EasySep™ Human CD14 Positive Selection Kit II (17858; Stemcell Technologies, Vancouver, Canada). […] The media were half-changed on days 3 and 5. On day 6, cells were collected and stained with BV421 aqua fluorescent reactive dye (L34966A; Invitrogen), FITC mouse anti-human CD80 (555683; BD Biosciences), PE mouse anti-human CD86 (560957; BD Biosciences) or BUV737 mouse anti-human CD83 (612823; BD Biosciences) antibodies for 20 min. After staining, cells were washed twice and analyzed by flow cytometry.

[7] = logD7.4; assay type: physicochemical; settings: pH 7.4
[8] = Plasma protein binding; assay type: in vitro ADME
Description: (§1) The ADME properties of QL-1200186 in vitro were measured by the following assays: Caco-2 permeability assay, CYP inhibition assay, protein binding assay, and liver microsome assay. Each assay was performed as previously described.

[9] = Liver microsome metabolic stability; assay type: in vitro ADME
Description: as §1

[10] = Met ID in vitro; assay type: in vitro ADME, human
[11] = tested on: IL-12/IL-18-driven IFNγ production; experiment: IL-12/IL-18-induced IFNγ release in mice; assay type: in vivo
Description: Healthy female, specific pathogen-free C57BL/6 mice (6–8 weeks) were intraperitoneally (i.p.) injected with IL-12 and IL-18 to drive IFNγ production. Mice were numbered, weighed and divided randomly into seven groups of five according to body weight using Excel™ (Office™; Microsoft, Redmond, WA, USA). One hour after drug administration, IL-12 (0.01 μg/mouse) was i.p. injected. One hour later, recombinant IL-18 (0.1 μg/mouse) was injected. Whole blood was collected 3 h later and centrifuged (300 g, 10 min, 4 °C), and serum was collected. IFNγ expression in serum was determined by a CBA Flex kit (BD Biosciences).

[12] = dogs, data not shown
[13] = rats, data not shown

Q: Which results are given for `CNC(=O)c1cnc2cc1Nc1cc(cc(-c3ccn(C)n3)c1OC)CCOCc1cccc(n1)N2` [QL-1200186, 5^6-methoxy-N-methyl-5^5-(1-methyl-1H-pyrazol-3-yl)-8-oxa-2,4-diaza-1(2,6),3(2,4)-dipyridina-5(1,3)-benzenacyclononaphane-3^5-carboxamide]?
A: in vitro off-target safety, 44 safety targets [1]: suitable safety; pIC50 [2]: 9.34; pIC50 [3]: 7.49; pIC50 [4]: 8.84; IL-2- pSTAT5 in PBMC (JAK1/JAK3) inhibition [5]: ~18% inhibition @10μM; differentiation and maturation of monocytes into dendritic cells (CD80, CD83, CD86 expression) [6]: significantly inhibited; logD7.4 [7]: 3.6; PPB (%, free) ([8]; Dog): 3.7%; PPB (%, free) ([8]; Human): 0.844%; PPB (%, free) ([8]; Monkey): 2.8%; PPB (%, free) ([8]; Mouse): 0.201%; PPB (%, free) ([8]; Rat): 1.3%; Metabolic Stability L.M. T1/2 ([9]; Dog): 1.42 h; Metabolic Stability L.M. T1/2 ([9]; Human): > 3.107 h; Metabolic Stability L.M. T1/2 ([9]; Monkey): 1.2 h; Metabolic Stability L.M. T1/2 ([9]; Mouse): 1.28 h; Metabolic Stability L.M. T1/2 ([9]; Rat): 1.823 h; specific human metabolites in vitro (Met ID) [10]: no specific human metabolites in vitro; inhibition of serum IFNγ production ([11]; oral 10 mg/kg): 97.8%; inhibition of serum IFNγ production ([11]; oral, 0.1 mg/kg): 77.1%; inhibition of serum IFNγ production ([11]; oral, 1 mg/kg): 86.9%; safety in toxicological studies [12]: excellent safety; safety in toxicological studies [13]: excellent safety

Reference: paper PMC10578023 (Cell Communication and Signaling : CCS, 2023)
